# Reference: patent publication US5874469A, “Fluoroalkyl hydrocarbons for administering water insoluble or unstable drugs” (Alcon Laboratories, Inc., priority 1996, dated 1999)
# Columns and labels:
# physchem [1] = details: 12205-1 perfluoro ester, organic solvent or mixture
# [2] = Storage stability (hydrolysis) of cabergoline in 12205-1, HPLC; assay type: physicochemical; details: room temperature, 40° C. and 50° C., FIG. 1b
# Procedure: 0.0056 g of cabergoline was weighed in a vial. […] The mixture was vortexed well and then sonicated for 30 minutes. The suspension was filtered through a 0.2μ acrodisc. The filtrate was split into 3 vials. The vials were stored at room temperature ("RT"), 40° C. and 50° C. The vial stored at room temperature was wrapped in aluminum foil. 100 μL of sample was withdrawn as a function of time. 1 mL of pH 3.0 phosphate buffer was added to the sample and vortexed. The supernatant was taken and analyzed by HPLC as described above.
# physchem [3] = details: organic solvent or mixture
# Procedure: 0.00471 grams ("g") of cabergoline was added to 1 milliter ("mL") of perfluorooctanol (PFO). The suspension was sonicated for 15 minutes and then filtered through a 0.45μ filter. 100 microliters ("μL") of the filtrate was extracted with 1 mL of phosphate buffer (pH 3.0). 10 μL of the aqueous portion was analyzed for cabergoline by injecting in onto the HPLC. The mobile phase was made as follows:
# 5.2 mL of concentrated phosphoric acid, 6.0 mL of tetrabutyl ammonium hydroxide, and 6.612 g of dibasic ammonium phosphate were added to 1500 mL of deionized water. The mixture was stirred until it formed a clear solution. To the above solution 1800 mL of acetonitrile, 400 mL of tetrahydrofuran and sufficient water were added to make 4 liters of mobile phase. The mobile phase was pumped at 1.5 mL/minute through a cyano column. The eluent was monitored at 280 nanometers ("nm").
# 0.00126 g of cabergoline was added to 1 mL of perfluoro-2-methyl-oxahexanoic acid, methyl ester ("12205-1"). The suspension was sonicated for 15 minutes and then filtered through a 0.45μ filter. 100 μL of the filtrate was extracted with 1 mL of phosphate buffer (pH 3.0). 10 μL of the aqueous portion was analyzed for cabergoline by injecting it onto the HPLC.
# [4] = Solubility of dipivefrin in 12205-1 (excess drug stirred 30 minutes, filtered, extracted with pH 3.0 phosphate buffer); assay type: physicochemical; details: 12205-1 perfluoro ester, organic solvent or mixture, vehicle 12205-1, excess dipivefrin alone, 0.2μ filter
# Procedure: The solution was filtered through a 0.2μ filter and 100 μl of the sample was extracted with phosphate buffer (pH 3.0). The aqueous portion was analyzed for dipivefrin.
# [5] = Solubility of betaxolol and dipivefrin, dissolved together, in 12205-1 (extraction into pH 3.0 phosphate buffer, reverse phase HPLC); details: 12205-1 perfluoro ester, organic solvent or mixture
# [6] = Storage stability (hydrolysis) of leflunomide in 12205-1, HPLC; assay type: physicochemical; details: 60° C. in an oven, FIG. 2b
# Procedure: The suspension was filtered and the filtrate was put on stability testing at 60° C. in an oven. 100 μL of sample was withdrawn as a function of time. The vehicle was evaporated and the residual sample was reconstituted in 1 mL of the mobile phase for leflunomide. The sample was analyzed by HPLC to determine the leflunomide content. […] The composition is therefore expected to be stable during storage.
# physchem [7] = details: perfluorooctanol, organic solvent or mixture
# Procedure: (§1) 0.01847 g of leflunomide was added to 1 mL of perfluorooctanol ("PFO"). The suspension was sonicated for 15 minutes. The suspension was filtered through a 0.45μ filter and 100 μL of the filtrate was extracted with 1 mL of the mobile phase for leflunomide. The mobile phase consisted of 40:60 of acetonitrile: 0.01m NaH2 PO4 adjusted to pH 7.0. 10 μL of the extract was injected on to a C-18 reverse phase column. The sample was eluted with the mobile phase with a flow rate of 2 mL/minute and monitored at 254 nm.
# (§2) 0.00207 g of leflunomide was added to 1 mL of perfluoro-2-methyl-oxahexanoic acid, methyl ester (12205-1). The suspension was filtered through a 0.45μ filter and 100 μL of the filtrate was extracted with 1 mL of the mobile phase of leflunomide. 10 μL of the extract was injected on to HPLC to determine the solubility of leflunomide.
# [8] = Solubility of leflunomide in fluoroalkyl hydrocarbon vehicle (filtration, extraction into mobile phase, HPLC); details: 12205-1 perfluoro ester, organic solvent or mixture
# Procedure: as §1, §2
compound,measurement,setting,value
CC(C)NCC(O)COc1ccc(CCOCC2CC2)cc1 (stereo not drawn) [betaxolol],solubility,physchem [1],> 1000 µg/mL
C=CCN1C[C@H](C(=O)N(CCCN(C)C)C(=O)NCC)C[C@@H]2c3cccc4[nH]cc(c34)C[C@H]21 [cabergoline],hydrolysis of cabergoline on storage,[2],no hydrolysis
same,solubility,physchem [3]; 12205-1 perfluoro ester,1040 µg/mL
same,solubility,physchem [3]; perfluorooctanol,2700 µg/mL
CNCC(O)c1ccc(OC(=O)C(C)(C)C)c(OC(=O)C(C)(C)C)c1 (stereo not drawn) [dipivefrin],solubility at 0.5 h,[4],> 1000 µg/mL
same,solubility,[5],> 1000 µg/mL
Cc1oncc1C(=O)Nc1ccc(C(F)(F)F)cc1 [leflunomide],hydrolysis of leflunomide on storage,[6],no hydrolysis
same,solubility,physchem [7],2000 µg/mL
same,solubility,[8],238 µg/mL
